Consider one compound from publication PMC3441526, “KCN1, a Novel Synthetic Sulfonamide Anticancer Agent: In Vitro and In Vivo Anti-Pancreatic Cancer Activities and Preclinical Pharmacology” (PLoS ONE, 2012).

A short description of the series: S9 metabolism. In kind it is in vitro ADME, CD2F1 mice. The protocol:
The in vitro metabolism of KCN1 was determined using hepatic microsomal S9 fractions from CD2F1 mice (In Vitro Technologies, Boston, MA). The reaction mixture consisted of 20 µL of 1000 µM KCN1 (in DMSO) and 1280 µL of cold 100 mM Tris buffer (pH 7.4). The reactions were initiated by adding 200 µL of the appropriate S9 fraction, and were maintained at 37°C. […] Metabolic reactions were initiated by adding phase I (NADPH-regenerating systems) or phase II (UDPGA and PAPS) reagents to the reaction mixtures, respectively. At designated time points (0, 15, 30, 45, and 60 min), duplicate 100 µL portions of the incubation mixture were removed and subjected to HPLC analysis by the same procedure described for plasma samples above. The stability of the drug was determined by analysis of intact KCN1, in comparison with negative control (without S9 fractions).

The structures appear in SMILES notation.

Take `COc1ccc(S(=O)(=O)N(Cc2ccc3c(c2)C=CC(C)(C)O3)c2ccccc2)cc1OC` [KCN1, 3,4-dimethoxy-N-[(2,2-dimethyl-2H-chromen-6-yl)methyl]-N-phenylbenzenesulfonamide]: for the setting “mouse S9, phase I (oxidation) enzymes, NADPH-regenerating system”, the “decrease in amount of KCN1” value is “more than 60%”. Besides, the “half-life with phase II enzymes” value (mouse S9, phase II (conjugation) enzymes, UDPGA and PAPS) was “relatively long half-life”.
